From patent publication US7138361B2, “Herbicidal heterocycles” (E. I. du Pont de Nemours and Company, priority 2000, dated 2006)

Columns and labels:
Type in all cases: in vivo
[1] = tested on: Surinam grass (Brachiaria decumbens); assay: Test B postemergence
Outline: (§1)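 Greenhouse test: chemicals are formulated in a surfactant-containing non-phytotoxic solvent and applied either preemergence to planted seeds or postemergence to plants 2 to 18 cm tall. Response is rated visually versus controls after 13 to 15 days, 0 meaning no effect and 100 complete control.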

[2] = tested on: barnyardgrass (Echinochloa crus-galli); assay: Test B postemergence
Outline: as §1

[3] = tested on: blackgrass (Alopecurus myosuroides); assay: Test B postemergence
Outline: as §1

corn (Zea mays) [4] = assay: Test B postemergence
Outline: as §1

[5] = tested on: giant foxtail (Setaria faberii); assay: Test B postemergence
Outline: as §1

[6] = tested on: morning glory (Ipomoea hederacea); assay: Test B postemergence
Outline: as §1

[7] = tested on: pigweed (Amaranthus retroflexus); assay: Test B postemergence
Outline: as §1

[8] = tested on: velvetleaf (Abutilon theophrasti); assay: Test B postemergence
Outline: as §1

[9] = tested on: wheat (Triticum aestivum); assay: Test B postemergence
Outline: as §1

[10] = tested on: Surinam grass (Brachiaria decumbens); assay: Test B preemergence
Outline: as §1

[11] = tested on: barnyardgrass (Echinochloa crus-galli); assay: Test B preemergence
Outline: as §1

[12] = tested on: cocklebur (Xanthium strumarium); assay: Test B preemergence
Outline: as §1

corn (Zea mays) [13] = assay: Test B preemergence
Outline: as §1

[14] = tested on: crabgrass (Digitaria sanguinalis); assay: Test B preemergence
Outline: as §1

[15] = tested on: giant foxtail (Setaria faberii); assay: Test B preemergence
Outline: as §1

[16] = tested on: lambsquarters (Chenopodium album); assay: Test B preemergence
Outline: as §1

[17] = tested on: morning glory (Ipomoea hederacea); assay: Test B preemergence
Outline: as §1

[18] = tested on: pigweed (Amaranthus retroflexus); assay: Test B preemergence
Outline: as §1

rice (Oryza saliva) [19] = assay: Test B preemergence
Outline: as §1

[20] = tested on: velvetleaf (Abutilon theophrasti); assay: Test B preemergence
Outline: as §1

[21] = tested on: barnyardgrass (Echinochloa crus-galli); assay: Test C flooded paddy test; conditions: for Barnyardgrass plant response rating: Flooded Paddy, scale 0 to 100, 0 no effect, 100 complete control; for Plant response rating, Barnyardgrass: flooded paddy test, scale 0 to 100 (0 no effect, 100 complete control)
Outline: (§2)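 Visual injury score, 0 (no effect) to 100 (complete control), relative to controls. Paddy plants treated at 2-leaf stage; greenhouse hold 12–14 d before rating.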

[22] = tested on: duck salad (Heteranthera limosa); assay: Test C flooded paddy test; conditions: for Ducksalad plant response rating: Flooded Paddy, scale 0 to 100, 0 no effect, 100 complete control; for Plant response rating, Ducksalad: flooded paddy test, scale 0 to 100 (0 no effect, 100 complete control)
Outline: as §2

rice (Oryza saliva) [23] = assay: Test C flooded paddy test; conditions: for Rice plant response rating: Flooded Paddy, scale 0 to 100, 0 no effect, 100 complete control; for Plant response rating, Rice: flooded paddy test, scale 0 to 100 (0 no effect, 100 complete control)
Outline: as §2

[24] = tested on: smallflower flatsedge (Cyperus difformis); assay: Test C flooded paddy test; conditions: for Flatsedge plant response rating: Flooded Paddy, scale 0 to 100, 0 no effect, 100 complete control; for Plant response rating, Flatsedge: flooded paddy test, scale 0 to 100 (0 no effect, 100 complete control)
Outline: as §2

Sunflower = assay: Test C preemergence; conditions: Rate 250 g/ha, scale 0 to 100, 0 no effect, 100 complete control
[25] = Rate 62 g/ha, scale 0 to 100, 0 no effect, 100 complete control
[26] = Rate 125 g/ha, scale 0 (no effect) to 100 (complete control), 13 to 15 days
[27] = Rate 250 g/ha, scale 0 (no effect) to 100 (complete control), 13 to 15 days
[28] = Rate 500 g/ha, scale 0 to 100, 0 is no effect, 100 is complete control, 13 to 15 days
[29] = Preemergence, Rate 500 g/ha, scale 0 to 100, 0 no effect, 100 complete control
[30] = preemergence, Rate 62 g/ha, scale of 0 to 100 where 0 is no effect and 100 is complete control, 13 to 15 days
[31] = preemergence, Rate 125 g/ha, scale of 0 to 100 where 0 is no effect and 100 is complete control, 13 to 15 days
[32] = preemergence, Rate 250 g/ha, scale 0 to 100, 0 no effect, 100 complete control
[33] = Rate 125 g/ha, scale 0 to 100, 0 no effect, 100 complete control

Cc1ccc(N2CCC(n3ccc(C(C)(C)C)n3)C2=O)cc1OCCCl (stereo not drawn) [Compound 109]
Plant response rating, Surinam grass [1, 25]: 0
Plant response rating, Surinam grass [1, 26]: 0
Plant response rating, Surinam grass [1, 27]: 20
Plant response rating, Surinam grass [1, 28]: 0
Plant response rating, Barnyardgrass [2, 25]: 0
Plant response rating, Barnyardgrass [2, 26]: 0
Plant response rating, Barnyardgrass [2, 27]: 0
Plant response rating, Barnyardgrass [2, 28]: 0
Plant response rating, Blackgrass [3, 25]: 0
Plant response rating, Blackgrass [3, 26]: 0
Plant response rating, Blackgrass [3, 27]: 0
Plant response rating, Blackgrass [3, 28]: 0
Plant response rating, Corn (corn (Zea mays) [4]; [25]): 0
Plant response rating, Corn (corn (Zea mays) [4]; [26]): 0
Plant response rating, Corn (corn (Zea mays) [4]; [27]): 0
Plant response rating, Corn (corn (Zea mays) [4]; [28]): 0
Plant response rating, Foxtail, Giant [5, 25]: 0
Plant response rating, Foxtail, Giant [5, 26]: 0
Plant response rating, Foxtail, Giant [5, 27]: 20
Plant response rating, Foxtail, Giant [5, 28]: 0
Plant response rating, Morningglory [6, 25]: 90
Plant response rating, Morningglory [6, 27]: 100
Plant response rating, Morningglory [6, 28]: 100
Plant response rating, Pigweed [7, 25]: 50
Plant response rating, Pigweed [7, 27]: 60
Plant response rating, Pigweed [7, 28]: 90
Plant response rating, Velvetleaf [8, 25]: 0
Plant response rating, Velvetleaf [8, 27]: 80
Plant response rating, Velvetleaf [8, 28]: 80
Plant response rating, Wheat [9, 25]: 0
Plant response rating, Wheat [9, 27]: 0
Plant response rating, Wheat [9, 28]: 0
Plant response rating, Surinam grass [10, 29]: 100
Plant response rating, Surinam grass [10, 30]: 20
Plant response rating, Surinam grass [10, 31]: 50
Plant response rating, Surinam grass [10, 32]: 90
Plant response rating, Barnyardgrass [11, 29]: 100
Plant response rating, Barnyardgrass [11, 30]: 0
Plant response rating, Barnyardgrass [11, 31]: 30
Plant response rating, Barnyardgrass [11, 32]: 50
Plant response rating, Cocklebur [12, 29]: 0
Plant response rating, Cocklebur [12, 30]: 0
Plant response rating, Cocklebur [12, 31]: 0
Plant response rating, Cocklebur [12, 32]: 0
Plant response rating, Corn (corn (Zea mays) [13]; [29]): 0
Plant response rating, Corn (corn (Zea mays) [13]; [30]): 0
Plant response rating, Corn (corn (Zea mays) [13]; [31]): 0
Plant response rating, Corn (corn (Zea mays) [13]; [32]): 0
Plant response rating, Crabgrass [14, 29]: 100
Plant response rating, Crabgrass [14, 30]: 100
Plant response rating, Crabgrass [14, 31]: 100
Plant response rating, Crabgrass [14, 32]: 100
Plant response rating, Foxtail, Giant [15, 29]: 50
Plant response rating, Foxtail, Giant [15, 30]: 20
Plant response rating, Foxtail, Giant [15, 31]: 0
Plant response rating, Foxtail, Giant [15, 32]: 100
Plant response rating, Lambsquarters [16, 29]: 100
Plant response rating, Lambsquarters [16, 30]: 100
Plant response rating, Lambsquarters [16, 31]: 100
Plant response rating, Lambsquarters [16, 32]: 100
Plant response rating, Morningglory [17, 29]: 0
Plant response rating, Morningglory [17, 30]: 0
Plant response rating, Morningglory [17, 31]: 0
Plant response rating, Morningglory [17, 32]: 0
Plant response rating, Pigweed [18, 29]: 100
Plant response rating, Pigweed [18, 30]: 100
Plant response rating, Pigweed [18, 31]: 100
Plant response rating, Pigweed [18, 32]: 100
Plant response rating, Rice (rice (Oryza saliva) [19]; [29]): 0
Plant response rating, Rice (rice (Oryza saliva) [19]; [30]): 0
Plant response rating, Rice (rice (Oryza saliva) [19]; [31]): 0
Plant response rating, Rice (rice (Oryza saliva) [19]; [32]): 0
Plant response rating, Velvetleaf [20, 29]: 70
Plant response rating, Velvetleaf [20, 30]: 0
Plant response rating, Velvetleaf [20, 31]: 0
Plant response rating, Velvetleaf [20, 32]: 60
Barnyardgrass plant response rating ([21]; Rate 250 g/ha): 70
Barnyardgrass plant response rating ([21]; Rate 500 g/ha): 90
Plant response rating, Barnyardgrass ([21]; Rate 62 g/ha): 0
Plant response rating, Barnyardgrass ([21]; Rate 125 g/ha): 0
Ducksalad plant response rating ([22]; Rate 250 g/ha): 70
Ducksalad plant response rating ([22]; Rate 500 g/ha): 90
Plant response rating, Ducksalad ([22]; Rate 62 g/ha): 0
Plant response rating, Ducksalad ([22]; Rate 125 g/ha): 0
Rice plant response rating (rice (Oryza saliva) [23]; Rate 250 g/ha): 0
Rice plant response rating (rice (Oryza saliva) [23]; Rate 500 g/ha): 20
Plant response rating, Rice (rice (Oryza saliva) [23]; Rate 62 g/ha): 0
Plant response rating, Rice (rice (Oryza saliva) [23]; Rate 125 g/ha): 0
Flatsedge plant response rating ([24]; Rate 250 g/ha): 80
Flatsedge plant response rating ([24]; Rate 500 g/ha): 100
Plant response rating, Flatsedge ([24]; Rate 62 g/ha): 40
Plant response rating, Flatsedge ([24]; Rate 125 g/ha): 50
Plant response rating, Sunflower (Sunflower): 90

CC(C)OC(=O)c1cccc(N2CCC(n3ccc(C(C)(C)C)n3)C2=O)c1 (stereo not drawn) [Compound 124]
Plant response rating, Surinam grass [1, 33]: 0
Plant response rating, Surinam grass [1, 28]: 0
Plant response rating, Barnyardgrass [2, 33]: 0
Plant response rating, Barnyardgrass [2, 28]: 0
Plant response rating, Blackgrass [3, 33]: 0
Plant response rating, Corn (corn (Zea mays) [4]; [33]): 0
Plant response rating, Corn (corn (Zea mays) [4]; [28]): 0
Plant response rating, Foxtail, Giant [5, 33]: 0
Plant response rating, Morningglory [6, 33]: 0
Plant response rating, Pigweed [7, 33]: 0
Plant response rating, Velvetleaf [8, 33]: 0
Plant response rating, Wheat [9, 33]: 0
Plant response rating, Surinam grass [10, 29]: 40
Plant response rating, Surinam grass [10, 31]: 0
Plant response rating, Barnyardgrass [11, 29]: 100
Plant response rating, Barnyardgrass [11, 31]: 70
Plant response rating, Cocklebur [12, 29]: 0
Plant response rating, Cocklebur [12, 31]: 0
Plant response rating, Corn (corn (Zea mays) [13]; [29]): 0
Plant response rating, Corn (corn (Zea mays) [13]; [31]): 0
Plant response rating, Crabgrass [14, 29]: 100
Plant response rating, Crabgrass [14, 31]: 30
Plant response rating, Foxtail, Giant [15, 29]: 100
Plant response rating, Foxtail, Giant [15, 31]: 50
Plant response rating, Lambsquarters [16, 29]: 100
Plant response rating, Lambsquarters [16, 31]: 100
Plant response rating, Morningglory [17, 29]: 60
Plant response rating, Morningglory [17, 31]: 0
Plant response rating, Pigweed [18, 29]: 100
Plant response rating, Pigweed [18, 31]: 80
Plant response rating, Rice (rice (Oryza saliva) [19]; [29]): 0
Plant response rating, Rice (rice (Oryza saliva) [19]; [31]): 0
Plant response rating, Velvetleaf [20, 29]: 0
Plant response rating, Velvetleaf [20, 31]: 0
Barnyardgrass plant response rating ([21]; Rate 250 g/ha): 0
Barnyardgrass plant response rating ([21]; Rate 500 g/ha): 0
Plant response rating, Barnyardgrass ([21]; Rate 62 g/ha): 0
Plant response rating, Barnyardgrass ([21]; Rate 125 g/ha): 0
Ducksalad plant response rating ([22]; Rate 250 g/ha): 40
Ducksalad plant response rating ([22]; Rate 500 g/ha): 80
Plant response rating, Ducksalad ([22]; Rate 62 g/ha): 0
Plant response rating, Ducksalad ([22]; Rate 125 g/ha): 20
Rice plant response rating (rice (Oryza saliva) [23]; Rate 250 g/ha): 0
Rice plant response rating (rice (Oryza saliva) [23]; Rate 500 g/ha): 0
Plant response rating, Rice (rice (Oryza saliva) [23]; Rate 62 g/ha): 0
Plant response rating, Rice (rice (Oryza saliva) [23]; Rate 125 g/ha): 0
Flatsedge plant response rating ([24]; Rate 250 g/ha): 30
Flatsedge plant response rating ([24]; Rate 500 g/ha): 90
Plant response rating, Flatsedge ([24]; Rate 62 g/ha): 0
Plant response rating, Flatsedge ([24]; Rate 125 g/ha): 20
Plant response rating, Sunflower (Sunflower): 0
